How the values were obtained:
in vitro = conditions: human, microsomes, pH 7.4
Protocol: The final incubation volume was 25 μL. […] The reactions were stopped by the addition of 50 μL methanol containing internal standard at the appropriate time points. The incubation plates were centrifuged at 2500 rpm for 20 min at 4 °C to precipitate the protein. Following protein precipitation, the sample supernatants were analyzed using LC-MS/MS. From a plot of ln peak area ratio (compound peak area/internal standard peak area) against time, the gradient of the line was determined. Subsequently, half-life and intrinsic clearance was calculated using the equations below: Elimination rate constant (k) = (− gradient).

murine models of HD = tested on: murine models of HD; design: method as in PMID 25252936; conditions: 3-nitropropionic acid injection model and R6/2 model, via PPARγ; cited from earlier work
S. typhimurium TA98 = test: AMES reverse mutation assay, TA98; assay type: cell-based; conditions: TA98, S9 yes
Protocol: (§1) Supplementary file 40035_2019_148_MOESM4_ESM.pdf: Additional file 4: AMES Data Summary. AMES Experimental Procedure. Approximately ten million bacteria are exposed in triplicate to VCE-003-.2 (7.8, 15.6, 31.3, 62.5, 125 and 250 μg/ml), a negative control (vehicle) and a positive control for 90 min in medium containing a low concentration of histidine (sufficient for about 2 doublings). The cultures were then diluted into indicator medium lacking histidine and dispensed into 48 wells of a 384 well plate (micro-plate format, MPF). The plate was incubated for 48 h at 37 °C, and the number of wells showing growth were counted and compared to the vehicle control. An increase in the number of colonies of at least two-fold over baseline (mean + SD of the vehicle control) and a dose response indicates a positive response. […] Where indicated, S9 fraction from the livers of Aroclor 1254-treated rats was included in the incubation at a final concentration of 4.5%. An NADPH-regenerating system is also included to ensure a steady supply of reducing equivalents. The strains used in this study were S. typhimurium TA98 (hisD3052, rfa, uvrB/pKM10 for detection of frame-shift mutations) and S. typhimurium TA100 ([…], rfa, uvrB/pKM101 for detection of base-pair substitutions). VCE-003.2 was assessed for its mutagenic potential in the AMES reverse mutation assay. This test was performed in the absence and presence of S9 metabolic activation. […] The positive controls all behaved as expected. (PDF 568 kb)

S. typhimurium TA100 = test: AMES reverse mutation assay, TA100; assay type: cell-based; conditions: TA100, S9 yes
Protocol: as §1

SMILES | half-life (in vitro) | microsomal CLint (in vitro) | motor symptoms, neuroinflammation and neurodegeneration in HD models (murine models of HD) | AMES Result (S. typhimurium TA98) | AMES Result (S. typhimurium TA100)
CCCCCc1cc(O)c(C/C=C(\C)CCC=C(C)C)c(O)c1 [CBG, Cannabigerol] | 13.4 min | 103 µL/min/mg | alleviates motor symptoms, neuroinflammation and neurodegeneration | – | –
COc1ccc2c(c1)[C@]13CCCC[C@@H]1[C@H](C2)N(C)CC3 [Dextrom Etorphan, dextromethorphan] | 58.1 min | 23.9 µL/min/mg | – | – | –
Nc1cccc2cc3ccccc3cc12 [aminoanthracene, reference compound] | – | – | – | Positive | Positive

Reference: paper PMC6407204, “Oral administration of the cannabigerol derivative VCE-003.2 promotes subventricular zone neurogenesis and protects against mutant huntingtin-induced neurodegeneration” (Translational Neurodegeneration, 2019)
